In patent US20260070929A1, “METHODS AND COMPOSITIONS FOR MODULATING KRAS(G12D)” (Ranok Therapeutics (Hangzhou) Co. LTD., priority 2022, published 2026):

Key:
KRAS(G12D)/SOS1 = biological target: T1, KRAS(G12D)/SOS1 (Homo sapiens, UniProt P01116, G12D); assay: KRAS(G12D)/SOS1 homogeneous time-resolved fluorescence (HTRF) assay; assay type: binding; conditions: absence of GTP; 4° C., 3 hr
T1 construct: purchased Cisbio 63ADK000CB17PEH
Experimental: Binding of test compounds to KRAS(G12D) target protein, which in turn blocks KRAS(G12D) interaction with the SOS1 protein, was measured in the absences of GTP by homogeneous time-resolved fluorescence using the KRAS-G12D/SOS1 Binding Assay Kit (Cisbio, 63ADK000CB17PEH), following the manufacturer's instructions, except as noted. 3-fold serial dilutions of each test compound were prepared ranging from 20 µM to 1.02 nM. The test compound was mixed and incubated with reaction components, incubated in a sealed plate at 4° C. for 3 hr and fluorescence was measured using a PerkinElmer Envision plate reader. The KRAS(G12D)-SOS1 IC50 values (the concentration of 50% of the maximal inhibition) were calculated using GraphPad Prism 7 software.

[1] = tested on: A-427 lung carcinoma cells [heterozygous G12D]; assay: Cancer cell line proliferation (CellTiter-Glo), A-427; assay type: cell-based; conditions: Homo sapiens, A-427 cells, 72 hr treatment, read-out: A427 CTG (EC50)
Experimental: (§1) The following cancer cell lines were employed: AGS gastric carcinoma [heterozygous G12D](ATCC, CRL-1739); A-427 lung carcinoma [heterozygous G12D](ATCC, HTB-53); ASPC1 pancreatic adenocarcinoma [homozygous G12D](ATCC, CRL-1682) and SW1990 pancreatic adenocarcinoma [homozygous G12D](ATCC CRL-2172). Cell lines were cultured essentially according to ATCC recommendations.
(§2) AGS, A-427, ASPC1, SW1990, and GP2D cells were plated in 96-well tissue culture plates at 4,000 cells/well and incubated at 37° C./5% CO2 for 72 hr in 100 μl of media. 3-fold serial dilutions of each test compound were prepared ranging from 20 μM to 1.02 nM. Each cell line was then treated with test compounds at various concentrations with a final concentration of 0.5% DMSO/well, and then incubated at 37° C./5% CO2 for 72 hr. 100 µl of CellTiter-Glo® Reagent (Promega Corporation, Madison, WI) was added to each well and processed according manufacturer's protocol. Results were analyzed and EC50 values were calculated in GraphPad 7 software.

[2] = tested on: AGS gastric carcinoma cells [heterozygous G12D]; assay: Cancer cell line proliferation (CellTiter-Glo), AGS; assay type: cell-based; conditions: Homo sapiens, 72 hr treatment, read-out: AGS CTG (EC50)
Experimental: as §1, §2

T1 sequence (P01116 1-188 isoform P01116-2 G12D): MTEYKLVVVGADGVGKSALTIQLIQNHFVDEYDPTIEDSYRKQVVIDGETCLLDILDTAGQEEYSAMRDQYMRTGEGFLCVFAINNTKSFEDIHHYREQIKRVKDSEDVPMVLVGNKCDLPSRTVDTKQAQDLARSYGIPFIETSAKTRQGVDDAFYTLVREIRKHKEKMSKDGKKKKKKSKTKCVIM

Structure (SMILES) | IC50 (KRAS(G12D)/SOS1) [nM] | EC50 [1] [nM] | EC50 [2] [nM]
CCc1cc(-c2nnc(C(=O)NCC(F)(F)F)n2-c2ccc(CN3CCN([C@H]4C[C@@H](COc5nc(N6CC7CCC(C6)N7)c6cnc(-c7cccc(F)c7C)c(F)c6n5)N(C)C4)CC3)cc2)c(O)cc1O [Compound 79] | > 1000 | 100 to 1000 | 100 to 1000
C#Cc1cccc2cccc(-c3ncc4c(N5CC6CCC(C5)N6)nc(OC[C@@H]5C[C@H](N6CCN(CCN(CC)C(=O)c7cc(C(C)C)c(O)cc7O)CC6)CN5C)nc4c3F)c12 [Compound 80] | < 100 | > 1000 | > 1000
CCc1cc(-c2nnc(C(=O)NCC(F)(F)F)n2-c2ccc(CN3CCN([C@H]4C[C@@H](COc5nc(N6CC7CCC(C6)N7)c6cnc(-c7cccc(C)c7C)c(F)c6n5)N(C)C4)CC3)cc2)c(O)cc1O [Compound 81] | > 1000 | 100 to 1000 | 100 to 1000
Cc1cccc(-c2ncc3c(N4CC5CCC(C4)N5)nc(OC[C@@H]4C[C@H](N5CCN(Cc6ccc(-n7c(C(=O)NC(C)C(F)(F)F)nnc7-c7cc(C(C)C)c(O)cc7O)cc6)CC5)CN4C)nc3c2F)c1C (stereo partly drawn) [Compound 82] | > 1000 | 100 to 1000 | 100 to 1000
CCNC(=O)c1nnc(-c2cc(C(C)C)c(O)cc2O)n1-c1ccc(CN2CCN([C@H]3C[C@@H](COc4nc(N5CC6CNC(C6)C5)c5cnc(-c6cc(O)cc7ccccc67)c(F)c5n4)N(C)C3)CC2)cc1 (stereo partly drawn) [Compound 85] | > 1000 | 100 to 1000 | 100 to 1000
C#Cc1cccc2cc(O)cc(-c3ncc4c(N5CC6CCC(C5)N6)nc(OC[C@@H]5C[C@H](N6CCN(Cc7ccc8c(c7)CN(C(=O)c7cc(C(C)C)c(O)cc7O)C8)CC6)CN5C)nc4c3F)c12 [Compound 86] | < 100 | 100 to 1000 | 100 to 1000
C#Cc1cccc2cc(O)cc(-c3ncc4c(N5CC6CCC(C5)N6)nc(OC[C@@H]5C[C@H](N6CCN(Cc7ccc(-n8c(C(=O)NC(C)C)nnc8-c8cc(C(C)C)c(O)cc8O)cc7)CC6)CN5C)nc4c3F)c12 [Compound 87] | < 100 | 100 to 1000 | 100 to 1000
CC(C)NC(=O)c1nnc(-c2cc(C(C)C)c(O)cc2O)n1-c1ccc(CN2CCN([C@H]3C[C@@H](COc4nc(N5CC6CCC(C5)N6)c5cnc(-c6ccccc6C(F)(F)F)c(F)c5n4)N(C)C3)CC2)cc1 [Compound 88] | > 1000 | 100 to 1000 | < 100
CCNC(=O)c1nnc(-c2cc(C(C)C)c(O)cc2O)n1-c1ccc(CN2CCC(C(=O)N3CCN([C@H]4C[C@@H](COc5nc(N6CC7CCC(C6)N7)c6cnc(-c7ccccc7C(F)(F)F)c(F)c6n5)N(C)C4)CC3)CC2)cc1 [Compound 89] | > 1000 | < 100 | < 100
CC(C)c1cc(C(=O)N2Cc3ccc(CN4CCC(C(=O)N5CCN([C@H]6C[C@@H](COc7nc(N8CC9CCC(C8)N9)c8cnc(-c9ccccc9C(F)(F)F)c(F)c8n7)N(C)C6)CC5)CC4)cc3C2)c(O)cc1O [Compound 91] | > 1000 | 100 to 1000 | 100 to 1000
CC(C)c1cc(C(=O)N2Cc3ccc(CN4CCC(C(=O)N5CCN([C@H]6C[C@@H](COc7nc(N8CC9CCC(C8)N9)c8cnc(-c9cccc%10cccc(F)c9%10)c(F)c8n7)N(C)C6)CC5)CC4)cc3C2)c(O)cc1O [Compound 92] | 100 to 1000 | 100 to 1000 | 100 to 1000
CC(C)c1cc(-c2nnc(C(=O)NC(C)C(F)(F)F)n2-c2ccc(CN3CCN([C@H]4C[C@@H](COc5nc(N6CC7CCC(C6)N7)c6cnc(-c7cccc8cccc(F)c78)c(F)c6n5)N(C)C4)CC3)cc2)c(O)cc1O (stereo partly drawn) [Compound 93] | 100 to 1000 | 100 to 1000 | < 100
Cc1cccc2cccc(-c3ncc4c(N5CC6CCC(C5)N6)nc(OC[C@@H]5CC[C@H](CN6CCN(C(=O)C7CCN(Cc8ccc9c(c8)CN(C(=O)c8cc(C(C)C)c(O)cc8O)C9)CC7)CC6)N5C)nc4c3F)c12 [Compound 94] | 100 to 1000 | 100 to 1000 | 100 to 1000
